Measurements from patent US9556199B2, “Thieno[3,2-d]pyrimidines derivatives for the treatment of viral infections” (Janssen Sciences Ireland UC, priority 2013, dated 2017).

How the values were obtained:
Assay type in all cases: cell-based
human TLR7 = target: T1, human TLR7 (Homo sapiens, UniProt Q9NYK1); test: TLR7 cellular NFκB-luc reporter assay in transiently transfected HEK293 cells; settings: lowest effective concentration, 6 hours incubation
T1 construct: expressed in transfected cells; host or cells: HEK293
T1 sequence (Q9NYK1 27-1049): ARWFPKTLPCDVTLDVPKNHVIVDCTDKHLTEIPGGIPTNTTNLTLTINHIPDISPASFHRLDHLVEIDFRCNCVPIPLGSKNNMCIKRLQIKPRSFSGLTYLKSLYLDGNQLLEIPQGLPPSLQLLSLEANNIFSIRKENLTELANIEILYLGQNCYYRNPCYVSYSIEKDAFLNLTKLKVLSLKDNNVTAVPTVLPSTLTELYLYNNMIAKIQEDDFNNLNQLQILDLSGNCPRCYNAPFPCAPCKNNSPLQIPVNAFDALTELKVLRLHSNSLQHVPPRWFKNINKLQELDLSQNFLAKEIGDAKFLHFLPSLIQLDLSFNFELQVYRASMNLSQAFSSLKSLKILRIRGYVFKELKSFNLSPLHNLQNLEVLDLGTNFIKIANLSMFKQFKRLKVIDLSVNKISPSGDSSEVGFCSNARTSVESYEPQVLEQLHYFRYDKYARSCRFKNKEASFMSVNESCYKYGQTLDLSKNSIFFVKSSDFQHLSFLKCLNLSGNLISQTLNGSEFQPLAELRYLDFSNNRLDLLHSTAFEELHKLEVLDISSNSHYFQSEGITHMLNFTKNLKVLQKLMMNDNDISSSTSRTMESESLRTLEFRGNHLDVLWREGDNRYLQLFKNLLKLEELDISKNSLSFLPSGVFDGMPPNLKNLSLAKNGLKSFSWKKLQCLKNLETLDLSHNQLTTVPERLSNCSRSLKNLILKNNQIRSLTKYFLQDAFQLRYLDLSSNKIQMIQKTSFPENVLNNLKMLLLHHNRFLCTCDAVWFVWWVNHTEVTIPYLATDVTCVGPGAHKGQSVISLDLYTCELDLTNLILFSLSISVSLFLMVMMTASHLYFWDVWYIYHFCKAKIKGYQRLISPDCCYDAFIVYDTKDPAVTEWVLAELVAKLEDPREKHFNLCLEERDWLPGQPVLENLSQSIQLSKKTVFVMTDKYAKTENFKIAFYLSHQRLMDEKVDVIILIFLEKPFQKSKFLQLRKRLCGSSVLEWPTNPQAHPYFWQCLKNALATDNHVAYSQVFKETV
Description: (§1) The ability of compounds to activate human TLR7 and/or TLR8 was assessed in a cellular reporter assay using HEK293 cells transiently transfected with a TLR7 or TLR8 expression vector and NFκB-luc reporter construct.
(§2) Briefly, HEK293 cells were grown in culture medium (DMEM supplemented with 10% FCS and 2 mM Glutamine). For transfection of cells in 15 cm dishes, cells were detached with Trypsin-EDTA, transfected with a mix of CMV-TLR7 or TLR8 plasmid (1700 ng), NFκB-luc plasmid (850 ng) and a transfection reagent and incubated for 48 h at 37° C. in a humidified 5% CO2 atmosphere. Transfected cells were then washed in PBS, detached with Trypsin-EDTA and resuspended in medium to a density of 1.25×10^5 cells/mL. Forty microliters of cells were then dispensed into each well in 384-well plates, where 200 nL of compound in 100% DMSO was already present. Following 6 hours incubation at 37° C., 5% CO2, the luciferase activity was determined by adding 15 μL of Steady Lite Plus substrate (Perkin Elmer) to each well and readout performed on a ViewLux ultraHTS microplate imager (Perkin Elmer). Dose response curves were generated from measurements performed in quadruplicates. Lowest effective concentrations (LEC) values, defined as the concentration that induces an effect which is at least two fold above the standard deviation of the assay, were determined for each compound.

human TLR8 = target: T2, human TLR8 (Homo sapiens, UniProt Q9NR97); test: TLR8 cellular NFκB-luc reporter assay in transiently transfected HEK293 cells; settings: lowest effective concentration, 6 hours incubation
T2 construct: expressed in transfected cells; host or cells: HEK293
T2 sequence (Q9NR97 27-1041): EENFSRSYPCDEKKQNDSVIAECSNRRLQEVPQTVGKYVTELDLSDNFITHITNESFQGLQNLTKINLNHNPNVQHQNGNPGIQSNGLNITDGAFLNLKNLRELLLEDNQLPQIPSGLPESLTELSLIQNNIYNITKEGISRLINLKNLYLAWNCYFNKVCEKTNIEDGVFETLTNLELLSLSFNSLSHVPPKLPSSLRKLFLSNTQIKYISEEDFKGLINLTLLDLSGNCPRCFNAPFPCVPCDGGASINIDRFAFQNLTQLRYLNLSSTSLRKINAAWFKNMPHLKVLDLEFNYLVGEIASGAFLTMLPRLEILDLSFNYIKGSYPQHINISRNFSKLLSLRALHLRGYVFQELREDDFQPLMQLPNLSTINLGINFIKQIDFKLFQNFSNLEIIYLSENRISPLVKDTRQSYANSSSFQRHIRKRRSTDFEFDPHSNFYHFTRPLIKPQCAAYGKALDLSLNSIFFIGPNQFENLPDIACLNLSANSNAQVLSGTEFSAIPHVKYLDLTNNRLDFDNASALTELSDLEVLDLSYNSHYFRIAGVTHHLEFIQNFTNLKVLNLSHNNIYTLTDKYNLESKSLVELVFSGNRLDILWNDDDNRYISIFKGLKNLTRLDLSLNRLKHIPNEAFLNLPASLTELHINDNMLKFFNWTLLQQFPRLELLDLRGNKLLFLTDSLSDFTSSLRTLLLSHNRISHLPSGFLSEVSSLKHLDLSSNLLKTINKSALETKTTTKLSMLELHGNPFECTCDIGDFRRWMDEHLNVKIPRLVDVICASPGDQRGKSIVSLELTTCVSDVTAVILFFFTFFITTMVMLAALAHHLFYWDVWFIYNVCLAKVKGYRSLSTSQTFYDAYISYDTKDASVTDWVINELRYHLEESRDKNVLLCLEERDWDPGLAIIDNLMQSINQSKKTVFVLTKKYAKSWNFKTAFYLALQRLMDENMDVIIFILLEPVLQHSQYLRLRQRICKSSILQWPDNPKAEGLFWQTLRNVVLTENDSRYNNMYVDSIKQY
Description: as §1, §2

[1] = tested on: interferon-stimulated responsive elements (ISRE); test: Activation of ISRE promoter elements in HEK-ISREluc cells by conditioned media from compound-treated PBMC; settings: lowest effective concentration applied to PBMCs, supernatant transferred to HEK-ISREluc cells, 24 hours, read-out: HEK-ISRE luc (LEC)
Description: The potential of compounds to induce IFN-I was also evaluated by measuring the activation of interferon-stimulated responsive elements (ISRE) by conditioned media from PBMC. The ISRE element of sequence GAAACTGAAACT (SEQ ID NO: 1) is highly responsive to the STAT1-STAT2-IRF9 transcription factor, activated upon binding of IFN-I to their receptor IFNAR (Clontech, PT3372-5W). The plasmid pISRE-Luc from Clontech (ref. 631913) contains 5 copies of this ISRE element, followed by the firefly luciferase ORF. A HEK293 cell line stably transfected with pISRE-Luc (HEK-ISREluc) was established to profile the conditioned PBMC cell culture media.
Briefly, PBMCs were prepared from buffy coats of at least two donors using a standard Ficoll centrifugation protocol. Isolated PBMCs were resuspended in RPMI medium supplemented with 10% human AB serum and 2×10^5 cells/well were dispensed into 384-well plates containing compounds (70 μL total volume). After overnight incubation, 10 μL of supernatant was transferred to 384-well plates containing 5×10^3 HEK-ISREIuc cells/well in 30 μL (plated the day before). Following 24 hours of incubation, activation of the ISRE elements was measured by assaying luciferase activity using 40 μL/well Steady Lite Plus substrate (Perkin Elmer) and measured with ViewLux ultraHTS microplate imager (Perkin Elmer). The stimulating activity of each compound on the HEK-ISREluc cells was reported as LEC value, defined as the compound concentration applied to the PBMCs resulting in a luciferase activity at least two fold above the standard deviation of the assay. The LEC in turn indicates the degree of ISRE activation on transfer of a defined amount of PBMC culture medium. Recombinant interferon α-2a (Roferon-A) was used as a standard control compound.

SMILES	Human TLR 7 (LEC) (human TLR7)	Human TLR 8 (LEC) (human TLR8)	minimal effective concentration [1]
CCCC[C@H](CO)Nc1nc(N)nc2cc(C)sc12 [Compound 21]	10.4 µM	0.6 µM	–
CCCCNc1nc(N)nc2c(C)csc12 [Compound 2]	2.2 µM	1.0 µM	0.6 µM
CCC[C@H](CO)Nc1nc(N)nc2ccsc12 [Compound 12]	>25 µM	7.2 µM	21 µM
CCC[C@H](Nc1nc(N)nc2c(C)csc12)C(=O)OC [Compound 15]	>25 µM	3.5 µM	2.6 µM
CCCCNc1nc(N)nc2ccsc12 [Compound 7]	1.1 µM	0.7 µM	0.3 µM
CCCC[C@@H](CO)Nc1nc(N)nc2cc(C(C)(C)C)sc12 [Compound 23]	2.7 µM	2.6 µM	–
CCC[C@@H](CO)Nc1nc(N)nc2c(C)csc12 [Compound 13]	12 µM	0.2 µM	0.6 µM
CCCCNc1nc(N)nc2cc(C(C)(C)C)sc12 [Compound 3]	1.2 µM	1.2 µM	0.4 µM
CCCC(C)Nc1nc(N)nc2cc(C)sc12 (stereo not drawn) [Compound 20]	>25 µM	6.9 µM	10.1 µM
CCCC[C@@H](CO)Nc1nc(N)nc2c(C)csc12 [Compound 17]	3.7 µM	0.3 µM	0.4 µM
CCC[C@@H](CO)Nc1nc(N)nc2ccsc12 [Compound 5]	2.7 µM	0.2 µM	0.4 µM
CCCCNc1nc(N)nc2cc(C)sc12 [Compound 1]	1.0 µM	0.5 µM	0.1 µM
CCCC[C@H](CO)Nc1nc(N)nc2c(C)csc12 [Compound 18]	>25 µM	0.8 µM	1.7 µM
CCCCCNc1nc(N)nc2ccsc12 [Compound 11]	2.1 µM	3.9 µM	1.2 µM
CCCC[C@@H](CCO)Nc1nc(N)nc2ccsc12 [Compound 8]	1.2 µM	0.7 µM	0.3 µM
CCC[C@@H](CCO)Nc1nc(N)nc2c(C)csc12 [Compound 16]	5.2 µM	1.6 µM	0.7 µM
CCCC[C@@H](CCO)Nc1nc(N)nc2c(C)csc12 [Compound 19]	3.9 µM	1.6 µM	0.6 µM
CCC[C@H](Nc1nc(N)nc2ccsc12)C(=O)OC [Compound 10]	6.1 µM	2.7 µM	0.8 µM
CCCC[C@@H](CO)Nc1nc(N)nc2cc(C)sc12 [Compound 22]	2.9 µM	0.2 µM	–
CCCC[C@H](CO)Nc1nc(N)nc2ccsc12 [Compound 6]	>25 µM	0.5 µM	0.6 µM
CCCC[C@@H](CO)Nc1nc(N)nc2ccsc12 [Compound 4]	0.5 µM	0.03 µM	0.04 µM
CCCCCNc1nc(N)nc2c(C)csc12 [Compound 14]	6.8 µM	1.9 µM	3.2 µM
CCCC(C)Nc1nc(N)nc2ccsc12 (stereo not drawn) [Compound 9]	3.3 µM	2.5 µM	3.8 µM
